# Measurements from paper PMC10610134, “Verubulin (Azixa) Analogues with Increased Saturation: Synthesis, SAR and Encapsulation in Biocompatible Nanocontainers Based on Ca^2+ or Mg^2+ Cross-Linked Alginate” (Pharmaceuticals, 2023).
# Columns and labels:
# [1] = test system: human breast cancer cell line MCF7′; test: MTT cytotoxicity assay, MCF7′; format: cell-based; conditions: MCF7, 64 h treatment, MTT, read-out: IC50, nM MCF7′
# Description: (§1) The obtained series of verubulin analogues 2a–r (which also included three by-products isolated in the reactions according to Scheme 2) were initially evaluated for cytotoxicity against commonly used human breast cancer cell line MCF7′ (fast-growth subclone), human lung epithelial carcinoma cell line A549 and etiologically non-cancer immortalized lung fibroblast cell line VA13 (WI38 subline 2RA). Cytotoxicity against immortalized human embryonic kidney cell line HEK293T, characterized by a high growth rate, was also studied regarding cytotoxicity against non-cancerous fast-growth cells. A standard MTT assay was performed; verubulin (1) served as a positive reference. The data obtained are presented in Table 1 (for dose–response curves, see Supplementary Materials).
# Human breast cancer cell line MCF7′ and human lung adenocarcinoma cell line A549 were kindly provided by Dr. S. Dmitriev (Lomonosov Moscow State University), immortalized human fibroblast cell line VA13 (WI38 subline 2RA) was kindly provided by Dr. M. Rubtsova (Lomonosov Moscow State University), human embryonic kidney HEK293T cell line was kindly provided by Dr. E. Knyazhanskaya (Lomonosov Moscow State University). MCF7′, VA13, A549 and HEK293T cell lines were maintained in DMEM/F-12 (Thermo Fisher Scientific, Waltham, MA, USA) culture medium containing 10% fetal bovine serum (Thermo Fisher Scientific, Waltham, MA, USA) and 50 μg/mL penicillin and 0.05 mg/mL streptomycin at 37 °C (Thermo Fisher Scientific, Waltham, MA, USA) in 5% CO2. Cells were maintained at 37 °C in a humidified MCO-18AC incubator (Sanyo, Tokyo, Japan) supplied with 5% CO2. Cell cultures were tested for the absence of mycoplasma and validated by STR.
# (§2) The cytotoxicity of the substances was tested using the 3-(4,5-dimethylthiazol-2-yl)2,5-diphenyl tetrazolium bromide (MTT) assay with some modifications. A total of 2500 cells per well for the MCF7′, HEK293T, A549 cell lines or 4000 cells per well for the VA-13 cell line were plated out in 135 μL of DMEM-F12 media (Gibco, Thermo Fisher Scientific, Waltham, MA, USA) in a 96-well plate and incubated in the 5% CO2 incubator for the first 20 h without treatment. Then, 15.8 μL of media–DMSO solutions of tested substances (final DMSO concentrations in the media were 0.5% or less) was added to the cells (triplicate each) and cells were treated for 64 h with 0.023 mg/L–50 mg/L (eight dilutions) of compounds 2f,n,o,r; 1.14 μg/L–2.5 mg/L (eight dilutions) of compounds 2a,b,d,g,h,k,l,p,q; 57.2 ng/L–125 μg/L (eight dilutions) of compounds 2e,i,j; 22.9 ng/L–50 μg/L (eight dilutions) of compounds 1,2c,m. Doxorubicin was used as a control substance. Then, the MTT reagent (Paneco LLC, Moscow, Russia) was added to cells up to a final concentration of 0.5 g/L (10 × stock solution in PBS was used) and incubated for 2 h at 37 °C in the incubator, under an atmosphere of 5% CO2. Then, the MTT solution was discarded, and 140 μL of DMSO (PharmaMed LLC, Moscow, Russia) was added. The plates were swayed on a shaker (120 rpm) to dissolve the formazan. The absorbance was measured using a microplate reader (VICTOR X5 Light Plate Reader, PerkinElmer, Waltham, MA, USA) at a wavelength of 555 nm (in order to measure formazan concentration). The results were used to construct dose–response graphs and to estimate IC50 values (IC50 is the concentration resulting in half of the maximal cytotoxic effect) with GraphPad Prism V, GraphPadSoftware, Inc., San Diego, CA, USA.
# A549 cell line = test: MTT assay of nanocontainer formulations, A549; format: cell-based; conditions: Homo sapiens, 48 h treatment, 2c concentration in formulations = 0.1 × COO− concentration
# Protocol: The MTT assay was carried out on the A549 cell line and non-tumor hTERT-immortalized human fibroblasts for 48 h (Table 2; for cell survival curves, see Supplementary Materials).
# Lung adenocarcinoma A549, breast adenocarcinoma MDA-MB-231 and non-tumor fibroblasts immortalized with h-TERT cell lines were obtained from the American Type Culture Collection (Manassas, VA, USA). Cells were routinely propagated in Dulbecco’s modified Eagle’s medium (DMEM) supplemented with 10% fetal bovine serum (HyClone, Logan, UT, USA), 2 mM L-glutamine, 100 U/mL penicillin and 100 μg/mL streptomycin (PanEco, Moscow, Russia) at 37 °C, 5% CO2 in a humidified atmosphere. Cells in the logarithmic phase of growth were used in the experiments.
# The cytotoxicity of compounds for human cell lines (A549, MDA-MB-231, non-tumor fibroblasts) was assessed in MTT assays. […]
# Cytotoxicity was assessed in a formazan conversion assay (MTT test) after a 48 h exposure. After the completion of drug exposure, 0.5 mg/mL 3-(4,5-dimethylthiazol-2-yl)-2,5-diphenyltetrazolium bromide (MTT reagent) was added to cells for 2 h, the culture medium was removed, cells were resuspended in 100 μL DMSO and the optical densities were measured on a Multiscan FC plate spectrophotometer (Thermo Fisher Scientific, Waltham, MA, USA) at a wavelength of 571 nm. […]
# [2] = test system: MCF7′, A549, VA13, HEK293T cell lines; test: MTT cytotoxicity, SAR statements over the cell line panel; format: cell-based, human
# Description: as §1, §2
# [3] = test system: tubulin (Tb) and microtubule-associated proteins (MAPs) from mouse brains; test: Tubulin + MAP polymerization assay; format: biochemical; conditions: GTP-dependent polymerization, read-out: IC50 of tubulin polymerization (initial rates, optical density at 355 nm)
structure (smiles),measurement,setting,value
"COc1ccc(N(C)c2nc(C)nc3c2CCCC3)cc1 [Compound 2c, N-(4-methoxyphenyl)-N,2-dimethyl-5,6,7,8-tetrahydroquinazolin-4-amine]",IC50,[1],3.6 ± 0.4 nM
same,IC50,A549 cell line,0.6 ± 0.06 µM
same,"cytotoxicity, in words","[2]; MTT, 64 h",retained high cytotoxicity of the parent molecule
same,selectivity towards tumor cells,[2]; pair A549/VA13,no selectivity
same,IC50,[3],7200 ± 1900 nM
